{"source": "the Kinase Knowledgebase extract (Sharma et al. 2016)", "target": "ROCK2 (human) (UniProt O75116)", "sequence (O75116 whole entry, looked up)": "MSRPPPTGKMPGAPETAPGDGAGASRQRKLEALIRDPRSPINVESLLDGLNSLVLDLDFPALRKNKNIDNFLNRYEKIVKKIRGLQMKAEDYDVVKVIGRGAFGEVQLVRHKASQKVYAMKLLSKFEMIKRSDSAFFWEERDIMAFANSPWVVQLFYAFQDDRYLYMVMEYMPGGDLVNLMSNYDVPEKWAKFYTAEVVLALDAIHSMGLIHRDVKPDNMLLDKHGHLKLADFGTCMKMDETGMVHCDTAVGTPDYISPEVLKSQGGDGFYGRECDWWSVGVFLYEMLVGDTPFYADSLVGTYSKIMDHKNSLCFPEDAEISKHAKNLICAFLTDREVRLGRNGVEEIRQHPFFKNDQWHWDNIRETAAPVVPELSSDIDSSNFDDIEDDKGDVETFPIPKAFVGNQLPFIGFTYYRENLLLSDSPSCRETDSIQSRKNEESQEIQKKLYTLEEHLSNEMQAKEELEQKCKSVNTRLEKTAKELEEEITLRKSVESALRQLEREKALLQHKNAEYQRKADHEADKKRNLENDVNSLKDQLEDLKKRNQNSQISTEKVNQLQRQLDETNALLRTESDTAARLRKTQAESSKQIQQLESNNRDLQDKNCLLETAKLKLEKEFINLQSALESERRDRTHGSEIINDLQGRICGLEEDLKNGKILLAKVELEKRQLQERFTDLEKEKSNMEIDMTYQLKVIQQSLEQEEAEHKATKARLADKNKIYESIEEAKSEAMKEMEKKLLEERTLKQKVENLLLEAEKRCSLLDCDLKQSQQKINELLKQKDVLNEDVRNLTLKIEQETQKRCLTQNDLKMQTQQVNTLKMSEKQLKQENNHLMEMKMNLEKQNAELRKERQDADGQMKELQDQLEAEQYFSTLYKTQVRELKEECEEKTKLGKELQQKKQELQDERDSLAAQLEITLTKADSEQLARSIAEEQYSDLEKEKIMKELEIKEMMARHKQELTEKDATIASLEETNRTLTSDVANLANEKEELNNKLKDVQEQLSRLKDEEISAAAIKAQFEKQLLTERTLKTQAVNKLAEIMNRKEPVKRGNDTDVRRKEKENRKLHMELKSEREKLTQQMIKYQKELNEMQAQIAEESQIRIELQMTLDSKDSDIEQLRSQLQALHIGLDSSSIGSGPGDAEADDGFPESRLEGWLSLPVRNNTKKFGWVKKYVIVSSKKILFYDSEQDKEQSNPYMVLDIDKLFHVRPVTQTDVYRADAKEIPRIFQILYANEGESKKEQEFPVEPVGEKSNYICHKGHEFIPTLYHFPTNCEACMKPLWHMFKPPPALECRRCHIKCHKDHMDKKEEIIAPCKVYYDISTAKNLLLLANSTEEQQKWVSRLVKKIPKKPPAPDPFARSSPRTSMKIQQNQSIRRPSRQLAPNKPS", "test": "Assessment of ROCK2 Kinase Activity", "data": [{"smiles": "Brc1cc2cnccc2cc1SC1CCCNCC1", "note": "(stereo not given)", "values": [{"measurement": "IC50", "result": "≤ 1", "unit": "µM"}]}, {"smiles": "O=c1[nH]ccc2cc(N[C@@H]3CCCN(Cc4ccccc4)C3)ccc12", "values": [{"measurement": "IC50", "result": "≤ 1", "unit": "µM"}]}, {"smiles": "O=c1[nH]ccc2cc(SC3CCNCC3)c(Cl)cc12", "values": [{"measurement": "IC50", "result": "≤ 1", "unit": "µM"}]}, {"smiles": "Cc1ccc(CN2CC[C@H](Nc3ccc4c(=O)[nH]ccc4c3)C2)cc1", "values": [{"measurement": "IC50", "result": "≤ 1", "unit": "µM"}]}, {"smiles": "CCCCN1CCC[C@@H](Nc2ccc3c(=O)[nH]ccc3c2)C1", "values": [{"measurement": "IC50", "result": "≤ 1", "unit": "µM"}]}, {"smiles": "CCCc1cc2cnccc2cc1SC1CCNCC1", "values": [{"measurement": "IC50", "result": "≤ 1", "unit": "µM"}]}, {"smiles": "O=c1[nH]ccc2cc(N[C@@H]3CCCN(Cc4ccc5ccccc5c4)C3)ccc12", "values": [{"measurement": "IC50", "result": "≤ 1", "unit": "µM"}]}, {"smiles": "Clc1cc2cnccc2cc1SC1CCCNC1", "note": "(stereo not given)", "values": [{"measurement": "IC50", "result": "≤ 1", "unit": "µM"}]}, {"smiles": "CC(C)CCN1CCC[C@@H](Nc2ccc3c(=O)[nH]ccc3c2)C1", "values": [{"measurement": "IC50", "result": "≤ 1", "unit": "µM"}]}, {"smiles": "O=c1[nH]ccc2cc(N[C@H]3CCN(CC4CC4)C3)ccc12", "values": [{"measurement": "IC50", "result": "≤ 1", "unit": "µM"}]}, {"smiles": "O=c1[nH]ccc2cc(S(=O)(=O)C3CCNCC3)c(Cl)cc12", "values": [{"measurement": "IC50", "result": "≤ 1", "unit": "µM"}]}, {"smiles": "O=c1[nH]ccc2cc(N[C@H]3CCN(Cc4cccc(Cl)c4F)C3)ccc12", "values": [{"measurement": "IC50", "result": "≤ 1", "unit": "µM"}]}, {"smiles": "O=c1[nH]ccc2cc(N[C@H]3CCN(Cc4ccc5ccccc5c4)C3)ccc12", "values": [{"measurement": "IC50", "result": "≤ 1", "unit": "µM"}]}, {"smiles": "O=c1[nH]ccc2cc(NC3CN(Cc4cccc(Cl)c4F)C3)ccc12", "values": [{"measurement": "IC50", "result": "≤ 1", "unit": "µM"}]}, {"smiles": "O=c1[nH]ccc2cc(NC3CN(Cc4ccccc4Cl)C3)ccc12", "values": [{"measurement": "IC50", "result": "≤ 1", "unit": "µM"}]}]}
